# Results reported in PubChem BioAssay (NCI).
#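 Dose response: 5 concentrations. Exposure: 48 h. Format: 96-well plates. Endpoint: linear interpolation; highest concentration if not reached. The concentration for 50% growth inhibition is given as GI50. TGI marks complete inhibition of growth.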
# What was measured:
# Assay in all cases: NCI anticancer screen, dose series, 48 h
# [1] = system: SK-MEL-28 melanoma
# [2] = system: OVCAR-8 ovarian
# [3] = system: A498 renal
# [4] = system: HOP-62 NSCLC
# [5] = system: NCI-H460 lung
# [6] = system: RPMI-8226 leukemia
# [7] = system: SNB-75 CNS
# [8] = system: MDA-MB-468 breast
# [9] = system: A549 NSCLC
# [10] = system: SK-MEL-5 melanoma
# [11] = system: NCI-H23 lung
# [12] = system: UACC-257 melanoma
# [13] = system: OVCAR-3 ovarian
# [14] = system: MDA-MB-435
# [15] = system: TK-10 renal
# [16] = system: CAKI-1 renal
# [17] = system: RXF 393 renal
# [18] = system: LOX IMVI melanoma
# [19] = system: MALME-3M melanoma
# [20] = system: UACC-62 melanoma
# [21] = system: MDA-MB-231 breast
# [22] = system: KM12 colon
# [23] = system: NCI-H226 lung
# [24] = system: MOLT-4 leukemia
# [25] = system: SNB-19 CNS
# [26] = system: DU-145 prostate
# [27] = system: HS 578T breast
# [28] = system: SN12C renal
# [29] = system: BT-549 breast
# [30] = system: MCF7 breast
# [31] = system: OVCAR-4 ovarian
# [32] = system: HL-60(TB) leukemia
# [33] = system: OVCAR-5 ovarian
# [34] = system: HCC-2998 colon
# [35] = system: HT29 colon
# [36] = system: CCRF-CEM leukemia
# [37] = system: SF-295 CNS
# [38] = system: HCT-116 colon
# [39] = system: IGROV1 ovarian
# [40] = system: COLO 205 colon
# [41] = system: EKVX NSCLC
# [42] = system: SK-OV-3 ovarian
# [43] = system: K-562 leukemia
# [44] = system: PC-3 prostate
# [45] = system: 786-0 renal
# [46] = system: T-47D breast
# [47] = system: ACHN renal
# [48] = system: SR leukemia
# [49] = system: HOP-92 NSCLC
# [50] = system: M14 melanoma
# [51] = system: NCI-H522 lung
# [52] = system: SF-268 CNS
# [53] = system: HCT-15 colon
# [54] = system: U251 CNS
# [55] = system: UO-31 renal
# [56] = system: SW-620 colon
# [57] = system: SF-539 CNS
# [58] = system: SK-MEL-2 melanoma
# [59] = system: NCI/ADR-RES ovarian
smiles,measurement,setting,value
CC(C)Sc1nc(NCCc2c[nH]c3ccccc23)c(C#N)c(-c2ccc(F)cc2)n1,GI50,[1],12.7 µM
same,TGI,[1],27.1 µM
same,GI50,[2],11.6 µM
same,TGI,[2],26.1 µM
same,GI50,[3],16.4 µM
same,TGI,[3],32.2 µM
same,GI50,[4],1.97 µM
same,TGI,[4],4.12 µM
same,GI50,[5],4.25 µM
same,TGI,[5],15.1 µM
same,GI50,[6],6.7 µM
same,TGI,[6],49.9 µM
same,GI50,[7],13.6 µM
same,TGI,[7],47.2 µM
same,GI50,[8],3.21 µM
same,TGI,[8],12 µM
same,GI50,[9],12.7 µM
same,TGI,[9],26.4 µM
same,GI50,[10],6.05 µM
same,TGI,[10],18.6 µM
same,GI50,[11],14.3 µM
same,TGI,[11],28.3 µM
same,GI50,[12],15.4 µM
same,TGI,[12],32.1 µM
same,GI50,[13],13.3 µM
same,TGI,[13],27.7 µM
same,GI50,[14],13.4 µM
same,TGI,[14],26.8 µM
same,GI50,[15],17.4 µM
same,TGI,[15],32.4 µM
same,GI50,[16],10.1 µM
same,TGI,[16],22.2 µM
same,GI50,[17],4.32 µM
same,TGI,[17],16.5 µM
same,GI50,[18],3.65 µM
same,TGI,[18],12.8 µM
same,GI50,[19],14.1 µM
same,TGI,[19],27.2 µM
same,GI50,[20],12.9 µM
same,TGI,[20],26.6 µM
same,GI50,[21],9.08 µM
same,TGI,[21],22.1 µM
same,GI50,[22],4.92 µM
same,TGI,[22],17.9 µM
same,GI50,[23],9.18 µM
same,TGI,[23],21.9 µM
same,GI50,[24],6.25 µM
same,TGI,[24],39.8 µM
same,GI50,[25],14.9 µM
same,TGI,[25],31 µM
same,GI50,[26],12 µM
same,TGI,[26],27 µM
same,GI50,[27],10.2 µM
same,TGI,[27],43.4 µM
same,GI50,[28],12.5 µM
same,TGI,[28],25.1 µM
same,GI50,[29],11.7 µM
same,TGI,[29],25 µM
same,GI50,[30],5.42 µM
same,TGI,[30],18.8 µM
same,GI50,[31],11.4 µM
same,TGI,[31],28.8 µM
same,GI50,[32],11.4 µM
same,TGI,[32],54.5 µM
same,GI50,[33],12.6 µM
same,TGI,[33],25.1 µM
same,GI50,[34],7.67 µM
same,TGI,[34],20.2 µM
same,GI50,[35],4.61 µM
same,TGI,[35],16 µM
same,GI50,[36],6.34 µM
same,TGI,[36],65.6 µM
same,GI50,[37],12 µM
same,TGI,[37],25.6 µM
same,GI50,[38],3.75 µM
same,TGI,[38],14.1 µM
same,GI50,[39],12.3 µM
same,TGI,[39],26.3 µM
same,GI50,[40],7.98 µM
same,TGI,[40],20.7 µM
same,GI50,[41],11.4 µM
same,TGI,[41],24.5 µM
same,GI50,[42],17.2 µM
same,TGI,[42],49.3 µM
same,GI50,[43],4.87 µM
same,TGI,[43],> 100 µM
same,GI50,[44],5.38 µM
same,TGI,[44],40.7 µM
same,GI50,[45],10.6 µM
same,TGI,[45],22.7 µM
same,GI50,[46],4.82 µM
same,TGI,[46],17.3 µM
same,GI50,[47],11.1 µM
same,TGI,[47],23.1 µM
same,GI50,[48],2.92 µM
same,TGI,[48],28.7 µM
same,GI50,[49],13.1 µM
same,TGI,[49],30.1 µM
same,GI50,[50],9.86 µM
same,TGI,[50],23.9 µM
same,GI50,[51],12.5 µM
same,TGI,[51],26 µM
same,GI50,[52],12.8 µM
same,TGI,[52],42.2 µM
same,GI50,[53],3.74 µM
same,TGI,[53],14.7 µM
same,GI50,[54],7.65 µM
same,TGI,[54],20.2 µM
same,GI50,[55],11.6 µM
same,TGI,[55],24.1 µM
same,GI50,[56],7.84 µM
same,TGI,[56],21.1 µM
same,GI50,[57],10.3 µM
same,TGI,[57],23.6 µM
CCCSc1nc(Nc2ccc(S(N)(=O)=O)cc2)c(C#N)c(-c2cc(OC)c(OC)c(OC)c2)n1,GI50,[1],7.29 µM
same,TGI,[1],> 100 µM
same,GI50,[2],5 µM
same,TGI,[2],> 100 µM
same,GI50,[3],> 100 µM
same,TGI,[3],> 100 µM
same,GI50,[4],11.1 µM
same,TGI,[4],> 100 µM
same,GI50,[5],5.46 µM
same,TGI,[5],> 100 µM
same,GI50,[6],3.56 µM
same,TGI,[6],> 100 µM
same,GI50,[7],2.09 µM
same,TGI,[7],> 100 µM
same,GI50,[8],6.22 µM
same,TGI,[8],65.4 µM
same,GI50,[9],4.31 µM
same,TGI,[9],> 100 µM
same,GI50,[10],2.75 µM
same,TGI,[10],12.1 µM
same,GI50,[11],15.7 µM
same,TGI,[11],> 100 µM
same,GI50,[12],19.2 µM
same,TGI,[12],> 100 µM
same,GI50,[13],6.07 µM
same,TGI,[13],> 100 µM
same,GI50,[14],4.9 µM
same,TGI,[14],> 100 µM
same,GI50,[15],16.1 µM
same,TGI,[15],> 100 µM
same,GI50,[16],5.76 µM
same,TGI,[16],> 100 µM
same,GI50,[17],2.36 µM
same,TGI,[17],9.67 µM
same,GI50,[18],3.68 µM
same,TGI,[18],> 100 µM
same,GI50,[19],5.78 µM
same,TGI,[19],75.4 µM
same,GI50,[20],6.25 µM
same,TGI,[20],> 100 µM
same,GI50,[21],7.23 µM
same,TGI,[21],> 100 µM
same,GI50,[22],4.77 µM
same,TGI,[22],> 100 µM
same,GI50,[23],6.07 µM
same,TGI,[23],> 100 µM
same,GI50,[24],2.53 µM
same,TGI,[24],8.95 µM
same,GI50,[25],11.7 µM
same,TGI,[25],> 100 µM
same,GI50,[26],7.93 µM
same,TGI,[26],> 100 µM
same,GI50,[27],7.33 µM
same,TGI,[27],> 100 µM
same,GI50,[28],5.77 µM
same,TGI,[28],> 100 µM
same,GI50,[29],3.24 µM
same,TGI,[29],32.5 µM
same,GI50,[30],4.23 µM
same,TGI,[30],> 100 µM
same,GI50,[31],6.39 µM
same,TGI,[31],> 100 µM
same,GI50,[32],2.93 µM
same,TGI,[32],33.2 µM
same,GI50,[33],32.7 µM
same,TGI,[33],> 100 µM
same,GI50,[34],7.53 µM
same,TGI,[34],> 100 µM
same,GI50,[35],6.89 µM
same,TGI,[35],> 100 µM
same,GI50,[36],3.44 µM
same,TGI,[36],> 100 µM
same,GI50,[37],3.75 µM
same,TGI,[37],28.3 µM
same,GI50,[38],4.38 µM
same,TGI,[38],> 100 µM
same,GI50,[58],11.8 µM
same,TGI,[58],> 100 µM
same,GI50,[39],25.9 µM
same,TGI,[39],> 100 µM
same,GI50,[40],8.77 µM
same,TGI,[40],> 100 µM
same,GI50,[41],5.27 µM
same,TGI,[41],> 100 µM
same,GI50,[42],55.1 µM
same,TGI,[42],> 100 µM
same,GI50,[43],3.52 µM
same,TGI,[43],> 100 µM
same,GI50,[44],2.8 µM
same,TGI,[44],> 100 µM
same,GI50,[45],10.4 µM
same,TGI,[45],> 100 µM
same,GI50,[46],2.76 µM
same,TGI,[46],51 µM
same,GI50,[47],4.88 µM
same,TGI,[47],> 100 µM
same,GI50,[49],3.98 µM
same,TGI,[49],63.6 µM
same,GI50,[50],6.74 µM
same,TGI,[50],> 100 µM
same,GI50,[51],10.7 µM
same,TGI,[51],> 100 µM
same,GI50,[59],4.6 µM
same,TGI,[59],> 100 µM
same,GI50,[52],9.84 µM
same,TGI,[52],> 100 µM
same,GI50,[53],3.4 µM
same,TGI,[53],> 100 µM
same,GI50,[54],5.37 µM
same,TGI,[54],> 100 µM
same,GI50,[55],2.59 µM
same,TGI,[55],> 100 µM
same,GI50,[56],8.34 µM
same,TGI,[56],> 100 µM
same,GI50,[57],21.4 µM
same,TGI,[57],> 100 µM
